# Source: paper PMC10997755, “Discovery of a small-molecule inhibitor that traps Polθ on DNA and synergizes with PARP inhibitors” (Nature Communications, 2024)
# Several values for one entry are separate records, joined by “and”; a condition that tells them apart may be missing. Equal entries are not always repeated.
# Columns and labels:
# Pol Eta = target: T1, Pol Eta (Homo sapiens, UniProt Q9Y253); assay: Primer extension by recombinant Pols (selectivity); format: biochemical
# T1 sequence (Q9Y253 1-713): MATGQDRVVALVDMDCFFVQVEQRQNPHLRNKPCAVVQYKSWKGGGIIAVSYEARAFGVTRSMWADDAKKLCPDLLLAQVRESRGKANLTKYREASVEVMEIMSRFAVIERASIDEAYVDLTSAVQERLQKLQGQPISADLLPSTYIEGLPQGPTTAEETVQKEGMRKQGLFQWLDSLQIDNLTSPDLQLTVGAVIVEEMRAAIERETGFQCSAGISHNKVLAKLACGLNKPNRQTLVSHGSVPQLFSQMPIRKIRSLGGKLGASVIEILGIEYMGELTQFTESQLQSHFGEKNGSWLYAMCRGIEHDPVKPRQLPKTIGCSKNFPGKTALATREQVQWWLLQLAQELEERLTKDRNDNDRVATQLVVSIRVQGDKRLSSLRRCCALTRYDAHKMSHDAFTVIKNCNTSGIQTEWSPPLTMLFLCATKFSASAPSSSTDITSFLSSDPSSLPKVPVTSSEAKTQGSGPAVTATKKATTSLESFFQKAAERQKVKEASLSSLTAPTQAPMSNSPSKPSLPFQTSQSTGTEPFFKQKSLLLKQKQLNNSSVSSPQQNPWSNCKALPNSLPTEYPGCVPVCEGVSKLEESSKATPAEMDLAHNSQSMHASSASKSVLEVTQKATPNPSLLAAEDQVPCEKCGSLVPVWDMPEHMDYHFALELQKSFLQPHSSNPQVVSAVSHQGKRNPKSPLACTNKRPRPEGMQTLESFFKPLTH
# Polθ-pol on DNA/DNA = target: T2, Polθ-pol on DNA/DNA (Homo sapiens, UniProt O75417); assay: Relative rate of ddCMP addition on DNA/DNA; format: biochemical; conditions: for Average % Extension (Single nt) / % Extension (Single nt): DNA template, 2uM RTX-161; for Average % Extension (Single nt): average of 3 trials; for % Extension (Single nt): single trials 1-3
# T2 construct: purified recombinant human Polθ-pol (comprising amino acid residues 1792–2590); made in house
# T2 sequence (O75417 1792-2590): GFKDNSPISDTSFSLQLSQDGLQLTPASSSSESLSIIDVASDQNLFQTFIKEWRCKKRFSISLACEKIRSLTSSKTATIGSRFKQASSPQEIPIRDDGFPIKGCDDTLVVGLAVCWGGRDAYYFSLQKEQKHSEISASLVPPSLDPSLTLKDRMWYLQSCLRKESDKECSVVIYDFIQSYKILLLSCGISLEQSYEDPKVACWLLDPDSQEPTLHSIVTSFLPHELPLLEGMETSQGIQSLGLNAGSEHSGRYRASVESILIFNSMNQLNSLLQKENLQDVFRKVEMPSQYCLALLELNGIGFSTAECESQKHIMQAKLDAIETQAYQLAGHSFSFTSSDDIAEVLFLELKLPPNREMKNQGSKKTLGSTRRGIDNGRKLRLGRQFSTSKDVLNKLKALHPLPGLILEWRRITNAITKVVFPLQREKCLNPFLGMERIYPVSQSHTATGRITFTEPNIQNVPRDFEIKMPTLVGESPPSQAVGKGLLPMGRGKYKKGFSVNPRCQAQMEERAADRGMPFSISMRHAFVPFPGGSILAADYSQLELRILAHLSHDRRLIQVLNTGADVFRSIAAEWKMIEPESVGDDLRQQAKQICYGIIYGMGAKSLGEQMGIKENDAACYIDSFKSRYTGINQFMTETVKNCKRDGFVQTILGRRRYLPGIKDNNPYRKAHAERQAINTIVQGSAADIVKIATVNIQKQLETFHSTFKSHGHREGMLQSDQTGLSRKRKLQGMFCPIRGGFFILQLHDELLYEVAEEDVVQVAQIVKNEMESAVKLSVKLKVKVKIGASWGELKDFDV
# Procedure: Relative rate of Polθ-pol dAMP addition. The relative rates of dAMP incorporation by Polq-pol in the presence of DMSO or MC160385 with various concentrations of dATP were measured using the following primer extension assay in vitro. 2 nM or Polθ-pol was incubated with 5’ ^32P-γ-ATP labeled 100 nM primer-template (RP469D/RP486) in 1X buffer (25 mM TrisHCl pH 7.8, 0.01% NP40, 10% glycerol, 1 mM DTT, 10 mM MgCl2, 0.1 mg/ml BSA) at room temp. 2.5% DMSO, 7.5 nM or 12 nM of MC160385 was added. Reactions were than initiated by the addition of 20, 50, 100, 200, or 300 μM dATP at room temp. Aliquots of the reactions were removed and terminated by the addition of 50 mM EDTA at 3, 3.5, 4 and 5 min after the reaction was initiated. Radio-labeled DNA was then resolved via denaturing 20% PAGE and visualized by Typhoon PhosphorImager (GE Amersham). Rates of dAMP incorporation were calculated from % extension of the prime-template which was determined using ImageJ software. Relative rate of ddCMP addition on DNA/DNA and DNA/RNA. 25 nM nucleic acid DNA/DNA or DNA/RNA primer-template (RP559/RP702 or RP559/RP702R) was mixed with 1X reaction buffer (20 mM TrisHCl pH 7.5, 0.01% NP-40, 0.5 mM DTT, 10% glycerol, 0.1 mg/ml BSA, 10 mM MgCl2) in the presence of 250 μM ddCTP at room temp. Next, 2 μM RTx-161 or 2.5% DMSO was added. Reactions were initiated by the addition of 10 nM Polθ-pol. Reaction aliquots were removed and terminated by the addition of 50 mM EDTA at the indicated time points. Radio-labeled DNA was then resolved via denaturing 20% PAGE and visualized by Typhoon PhosphorImager. Percent primer extension by single ddCMP addition at each time point was calculated from % extension of the prime-template which was determined using ImageJ software.
structure (smiles),measurement,setting,value
CN(C(=O)Oc1c(N2CCN(CCO)C2=O)cc(C(F)(F)F)cc1C(F)(F)F)c1ccc(F)cc1 [RTx-161],% Full Extension,Pol Eta; Pol Eta,78.72%
same,% Inhibition Compared to Control,Pol Eta; Pol Eta,-2.54%
same,% Relative Maximum Extension,Pol Eta; Pol Eta,102.54%
same,inhibition of primer extension,"Pol Eta; selectivity panel, Pol named in Supplementary Fig. 1h",no inhibition
same,inhibition of single nucleotide incorporation on DNA/DNA,"Polθ-pol on DNA/DNA; 2 μM RTx-161, closed conformation",significant inhibition
same,Average % Extension (Single nt),Polθ-pol on DNA/DNA; Time 0,0.00%
same,% Extension (Single nt),Polθ-pol on DNA/DNA; Time 0,0.00%
same,Average % Extension (Single nt),Polθ-pol on DNA/DNA; Time 0.5,11.29%
same,% Extension (Single nt),Polθ-pol on DNA/DNA; Time 0.5,12.34% and 11.73% and 9.81%
same,Average % Extension (Single nt),Polθ-pol on DNA/DNA; Time 1,18.42%
same,% Extension (Single nt),Polθ-pol on DNA/DNA; Time 1,20.67% and 19.99% and 14.59%
same,Average % Extension (Single nt),Polθ-pol on DNA/DNA; Time 2,25.83%
same,% Extension (Single nt),Polθ-pol on DNA/DNA; Time 2,27.74% and 29.45% and 20.29%
